Assay results: patent publication US8202910B2 (Sequella, Inc., priority 2006, dated 2012)
Values after ≈ are worked out from the molar mass of the structure shown. Like-named read-outs stand apart in the source and are kept apart here.

Tests used:
MDR Strain TN576 = assay: microbe, parasite or virus in culture; assay type: cell-based, Mycobacterium tuberculosis; details: for Drug Resistance of MDR Strain: 576 W1; for MIC: Mycobacterium tuberculosis
MDR strain TN587 = assay: microbe, parasite or virus in culture; assay type: cell-based, Mycobacterium tuberculosis; details: for Drug Resistance of MDR Strain: 587 W; for MIC: Mycobacterium tuberculosis
EMB-resistant strain = assay: microbe, parasite or virus in culture; assay type: cell-based, M. tuberculosis; details: Mycobacterium tuberculosis
INH-resistant MTB strain = assay: microbe, parasite or virus in culture; assay type: cell-based, M. tuberculosis; details: Mycobacterium tuberculosis
MDR strain TN3086 (3806) = assay: microbe, parasite or virus in culture; assay type: cell-based, Mycobacterium tuberculosis; details: for MIC: Mycobacterium tuberculosis; for Drug Resistance of MDR Strain: 3806 W1
[1] = system: M. tuberculosis clinical isolates (drug susceptible and drug resistant); assay type: cell-based; details: more than 30 clinical isolates

Molecule	Drug Resistance of MDR Strain (MDR Strain TN576)	Drug Resistance of MDR Strain (MDR strain TN587)	MIC (MDR Strain TN576; strain 576) [µg/mL]	MIC (MDR strain TN3086 (3806); strain 3806) [µg/mL]	MIC (MDR strain TN587; TN587, strain 587) [µg/mL]	Drug Resistance of MDR Strain (MDR strain TN3086 (3806))	also measured
N[C@@H]1CON=C1O [Cyc, Cycloserine]	S	S					
CC(C)=CCC/C(C)=C/CNCCNC1C2CC3CC(C2)CC1C3 (stereo not drawn) [Compound 109, N-Geranyl-N′-(2-adamanthyl)ethane-1,2-diamine]			0.2	0.1	0.2		MIC (EMB-resistant strain): 0.5 µg/mL (≈ 1.51 µM); MIC (INH-resistant MTB strain): 0.25 µg/mL (≈ 0.756 µM); MIC range [1]: 0.16 to 0.64 µg/mL
C[C@@H]1C2C[C@@H](C[C@H]1NCCNC[C@@H]1CCC3C[C@@H]1C3(C)C)C2(C)C [MP 117]			3.15	3.15	3.15		
[H]/N=C(/N)N[C@H]1[C@H](O)[C@@H](O)[C@H](O[C@@H]2O[C@@H](C)[C@](O)(C=O)[C@H]2O[C@@H]2O[C@@H](CO)[C@H](O)[C@@H](O)[C@@H]2NC)[C@@H](N/C(N)=N\[H])[C@@H]1O [SM, Streptomycin]	R	R				R	
CC1(C)CC2CC(C)(CN2CCNC[C@@H]2CCC3C[C@@H]2C3(C)C)C1 [MP 116]			3.15	3.15	6.25		
CCc1cc(C(N)=S)ccn1 [Eth, Ethionamide]	R	S				S	
O=C(O)c1cn(C2CC2)c2cc(N3CCNCC3)c(F)cc2c1=O [Cip, Ciprofloxacin]	S	S					
NC[C@H]1O[C@H](O[C@H]2[C@H](O)[C@@H](O[C@H]3O[C@H](CO)[C@@H](O)[C@H](N)[C@H]3O)[C@H](N)C[C@@H]2N)[C@H](O)[C@@H](O)[C@@H]1O [Kan, Kanamycin]	R	R				R	
Capreomycin	R	S					
CC[C@@H](CO)NCCN[C@@H](CC)CO [EMB, Ethambutol, reference compound]	R	R				R	MIC (MDR Strain TN576; read-out: MIC of ethambutol, MDR strain, TN576): 12.5 to 25 µM; MIC (MDR strain TN3086 (3806); read-out: MIC of ethambutol, MDR strain, TN3086): 12.5 to 25 µM; MIC (MDR strain TN587; TN587, read-out: MIC of ethambutol, MDR strain, TN587): 12.5 to 25 µM
C[C@@H]1[C@H]2C[C@@H](C[C@H]1NCCNC1CCCCCCC1)C2(C)C [Compound 59, N-(Cyclooctyl)-N′-(1R, 2R, 3R, 5S)-(−)-isopinocampheylethane-1,2-diamine]			0.1	0.05	0.05		
NNC(=O)c1ccncc1 [INH, Isoniazid]	R	R				R	
CO[C@H]1/C=C/O[C@@]2(C)Oc3c(C)c(O)c4c(O)c(c(/C=N/N5CCN(C)CC5)c(O)c4c3C2=O)NC(=O)/C(C)=C\C=C\[C@H](C)[C@H](O)[C@@H](C)[C@@H](O)[C@@H](C)[C@H](OC(C)=O)[C@@H]1C [RIF, Rifampicin]	R	R				R	
CC1(C)C2CCC(CNCCNCC(c3ccccc3)c3ccccc3)[C@@H]1C2 (stereo partly drawn) [RL 241]			1.5	1.5	1.5		
